Measurements taken from patent publication US10787444B2, “Compounds for the modulation of myc activity” (Syros Pharmaceuticals, Inc., priority 2015, dated 2020).
Counter-ions that a name gives are not always drawn. Like-named read-outs stand apart in the source and are kept apart here.

Columns and labels:
[1] = system: human small lung cancer cell line H2171; assay: Cell Viability Assay (ATPlite); type: cell-based; conditions: read-out: H2171 Activity
Method in brief: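 Viability readout was ATPlite luminescence, taken after 3 days' incubation at 37° C. Human SCLC H2171 cells (20,000 cells/mL) received compound right after plating, as a 10-point dose response.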

c-Myc/Max/Ebox DNA = target: T1, c-Myc/Max/Ebox DNA (Homo sapiens, UniProt P01106); assay: c-Myc/Max/Ebox DNA AlphaScreen Assay; type: binding; conditions: calculated IC50 class
T1 construct: his6 (cleaved yes)
T1 sequence (P01106 whole entry): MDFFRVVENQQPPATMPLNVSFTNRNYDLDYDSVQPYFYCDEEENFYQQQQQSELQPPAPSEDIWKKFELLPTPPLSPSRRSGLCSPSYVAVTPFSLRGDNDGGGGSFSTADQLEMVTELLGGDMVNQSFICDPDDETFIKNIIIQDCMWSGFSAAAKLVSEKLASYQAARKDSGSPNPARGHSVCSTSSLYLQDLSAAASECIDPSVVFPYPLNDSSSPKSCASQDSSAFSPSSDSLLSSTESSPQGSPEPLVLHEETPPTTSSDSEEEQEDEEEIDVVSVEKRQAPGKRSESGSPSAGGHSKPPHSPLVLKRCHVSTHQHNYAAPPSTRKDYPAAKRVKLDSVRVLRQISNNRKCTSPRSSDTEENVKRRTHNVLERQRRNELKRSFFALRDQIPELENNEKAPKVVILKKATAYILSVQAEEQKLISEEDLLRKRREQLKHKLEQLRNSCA
Method in brief: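 Compounds were preincubated with free c-Myc (20 nM), biotinylated single-Ebox DNA (10 nM) and Ni acceptor beads before his6-Max (5 nM) and streptavidin donor beads were added. Buffer was 50 mM HEPES pH 8.0, 150 mM NaCl, BSA, Tween20, glycogen and DTT, with DMSO ≤2%. After 2 h incubation, AlphaScreen signal was read at 680 nm excitation and 520–620 nm emission.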

[2] = Homo sapiens, NCI-H2171, 72 h, Table 2, compounds of FIG. 1, H2171 cells, three days, ATPlite, calculated IC50 class
[3] = Homo sapiens, NCI-H2171, 72 h, Table 3, compounds of FIG. 2, H2171 cells, three days, ATPlite, calculated IC50 class

Compound	IC50 [1, 2] [nM]	IC50 (c-Myc/Max/Ebox DNA; Table 2, compounds of FIG. 1) [nM]	IC50 (c-Myc/Max/Ebox DNA; Table 3, compounds of FIG. 2) [nM]	IC50 [1, 3] [nM]	other results
CC[C@H](C)NCCC(=O)Nc1sc2c(c1-c1nc3cc(C(F)(F)F)ccc3s1)CCNC2 [Compound 152, (S)-3-(sec-butylamino)-N-(3-(5-(trifluoromethyl)benzo[d]thiazol-2-yl)-4,5,6,7-tetrahydrothieno[2,3-c]pyridin-2-yl)propanamide]	< 300	< 300			
CC(C)N1CCc2c(sc(NC(=O)CCNCc3cn[nH]c3)c2-c2nc3ccccc3s2)C1 [Compound 155, 3-(((1H-pyrazol-4-yl)methyl)amino)-N-(3-(benzo[d]thiazol-2-yl)-6-isopropyl-4,5,6,7-tetrahydrothieno[2,3-c]pyridin-2-yl)propanamide]	< 300	< 300			
CC[C@H](C)NCCC(=O)Nc1sc2c(c1-c1nc3cc(F)ccc3s1)CCNC2 [Compound 156, (S)-3-(sec-butylamino)-N-(3-(5-fluorobenzo[d]thiazol-2-yl)-4,5,6,7-tetrahydrothieno[2,3-c]pyridin-2-yl)propanamide hydrochloride]	< 300	< 300			
CC(C)NCCC(=O)Nc1sc2c(c1-c1nc3cc(-c4ccncc4)ccc3s1)CCNC2 [Compound 160, 3-(Isopropylamino)-N-(3-(5-(pyridin-4-yl)benzo[d]thiazol-2-yl)-4,5,6,7-tetrahydrothieno[2,3-c]pyridin-2-yl)propanamide dihydrochloride]	300 to 1000	300 to 1000			
CC(C)NCCC(=O)Nc1sc2c(c1-c1nc3cc(-n4ccnc4)ccc3s1)CCNC2 [Compound 178, N-(3-(5-(1H-imidazol-1-yl)benzo[d]thiazol-2-yl)-4,5,6,7-tetrahydrothieno[2,3-c]pyridin-2-yl)-3-(isopropylamino)propanamide dihydrochloride]	< 300	< 300			
COCCNCCC(=O)Nc1sc2c(c1-c1nc3cc(F)ccc3s1)CCNC2 [Compound 189, N-(3-(5-fluorobenzo[d]thiazol-2-yl)-4,5,6,7-tetrahydrothieno[2,3-c]pyridin-2-yl)-3-((2-methoxyethyl)amino)propanamide]	< 300	< 300			
O=C(CCNCc1c[nH]cn1)Nc1sc2c(c1-c1nc3ccccc3s1)CCNC2 [Compound 190, 3-(((1H-imidazol-4-yl)methyl)amino)-N-(3-(benzo[d]thiazol-2-yl)-4,5,6,7-tetrahydrothieno[2,3-c]pyridin-2-yl)propanamide]	< 300	< 300			
CCC(C)NCCC(=O)Nc1sc2c(c1-c1nc3ccccc3s1)CC[N+](C)(C(C)C)C2 (stereo not drawn) [Compound 191, 3-(benzo[d]thiazol-2-yl)-2-(3-(sec-butylamino)propanamido)-6-isopropyl-6-methyl-4,5,6,7-tetrahydrothieno[2,3-c]pyridin-6-ium]	1000 to 10000	< 300			
CCC(=O)NCCC(=O)Nc1sc2c(c1-c1nc3ccccc3s1)CCNC2 [Compound 199, N-(3-(benzo[d]thiazol-2-yl)-4,5,6,7-tetrahydrothieno[2,3-c]pyridin-2-yl)-3-propionamidopropanamide]	1000 to 10000	1000 to 10000			
CC(=O)Nc1sc2c(c1-c1nc3ccccc3s1)CCN(C(C)C)C2 [Compound 200, N-(3-(benzo[d]thiazol-2-yl)-6-isopropyl-4,5,6,7-tetrahydrothieno[2,3-c]pyridin-2-yl)acetamide]			300 to 1000		IC50 ([1]; Homo sapiens, NCI-H2171, 72 h): 1000 to 10000 nM
CCN1CCc2c(sc(NC(C)=O)c2-c2nc3ccccc3s2)C1 [Compound 201, N-(3-(benzo[d]thiazol-2-yl)-6-ethyl-4,5,6,7-tetrahydrothieno[2,3-c]pyridin-2-yl)acetamide]			1000 to 10000		IC50 ([1]; Homo sapiens, NCI-H2171, 72 h): 1000 to 10000 nM
CC(=O)Nc1sc2c(c1-c1nc3ccccc3s1)CCNC2 [Compound 202, N-(3-(benzo[d]thiazol-2-yl)-4,5,6,7-tetrahydrothieno[2,3-c]pyridin-2-yl)acetamide]			1000 to 10000	< 300	
CC(=O)Nc1sc2c(c1-c1nc3ccccc3s1)C(C)CNC2 (stereo not drawn) [Compound 205, N-(3-(benzo[d]thiazol-2-yl)-4-methyl-4,5,6,7-tetrahydrothieno[2,3-c]pyridin-2-yl)acetamide]			> 10000	> 10000	
CC(=O)Nc1sc2c(c1-c1nc3ccccc3s1)C(F)CNC2 (stereo not drawn) [Compound 217, N-(3-(benzo[d]thiazol-2-yl)-4-fluoro-4,5,6,7-tetrahydrothieno[2,3-c]pyridin-2-yl) acetamide]			> 10000	< 300	
CC(=O)Nc1sc2c(c1-c1nc3ccccc3s1)C[C@@H](C)N[C@H]2C [Compound 218, N-((5R,7S)-3-(benzo[d]thiazol-2-yl)-5,7-dimethyl-4,5,6,7-tetrahydrothieno[2,3-c]pyridin-2-yl)acetamide]			1000 to 10000		IC50 ([1]; Table 3, compounds of FIG. 2, H2171 cells, three days, ATPlite, calculated IC50 class): < 300 nM
CC(=O)Nc1sc2c(c1-c1nc3ccccc3s1)C(F)CN(C(C)C)C2 (stereo not drawn) [Compound 220, N-(3-(benzo[d]thiazol-2-yl)-4-fluoro-6-isopropyl-4,5,6,7-tetrahydrothieno[2,3-c]pyridin-2-yl) acetamide]			1000 to 10000		IC50 ([1]; Homo sapiens, NCI-H2171, 72 h): > 10000 nM
CC(=O)Nc1sc2c(c1-c1nc3ccccc3s1)CCC(N)C2 (stereo not drawn) [Compound 221, N-(6-amino-3-(benzo[d]thiazol-2-yl)-4,5,6,7-tetrahydrobenzo[b]thiophen-2-yl)acetamide]			> 10000	> 10000	
CC(=O)Nc1sc2c(c1-c1nc3c(C)cccc3s1)CCNC2 [Compound 225, N-(3-(4-methylbenzo[d]thiazol-2-yl)-4,5,6,7-tetrahydrothieno[2,3-c]pyridin-2-yl)acetamide]			300 to 1000	< 300	

Second part, led by results:

IC50 [1, 2] [nM]	IC50 (c-Myc/Max/Ebox DNA; Table 2, compounds of FIG. 1) [nM]	IC50 (c-Myc/Max/Ebox DNA; Table 3, compounds of FIG. 2) [nM]	IC50 [1, 3] [nM]	Compound	other results
< 300	300 to 1000			CC[C@@H](C)NCCC(=O)Nc1sc2c(c1-c1nc3ccccc3s1)CCNC2 [Compound 153, (R)—N-(3-(benzo[d]thiazol-2-yl)-4,5,6,7-tetrahydrothieno[2,3-c]pyridin-2-yl)-3-(sec-butylamino)propanamide]	
< 300	300 to 1000			CC[C@H](C)NCCC(=O)Nc1sc2c(c1-c1nc3ccccc3s1)CCNC2 [Compound 154, (S)—N-(3-(benzo[d]thiazol-2-yl)-4,5,6,7-tetrahydrothieno[2,3-c]pyridin-2-yl)-3-(sec-butylamino) propanamide]	
< 300	< 300			CC[C@@H](C)NCCC(=O)Nc1sc2c(c1-c1nc3cc(C(F)(F)F)ccc3s1)CCNC2 [Compound 179, (R)-3-(sec-butylamino)-N-(3-(5-(trifluoromethyl)benzo[d]thiazol-2-yl)-4,5,6,7-tetrahydrothieno[2,3-c]pyridin-2-yl)propanamide]	
< 300	< 300			CC[C@@H](C)NCCC(=O)Nc1sc2c(c1-c1nc3cc(F)ccc3s1)CCNC2 [Compound 185, (R)-3-(sec-butylamino)-N-(3-(5-fluorobenzo[d]thiazol-2-yl)-4,5,6,7-tetrahydrothieno[2,3-c]pyridin-2-yl)propanamide]	
		1000 to 10000	1000 to 10000	CC(=O)Nc1sc2c(c1-c1nc3cc(F)ccc3s1)CCNC2 [Compound 203, N-(3-(5-fluorobenzo[d]thiazol-2-yl)-4,5,6,7-tetrahydrothieno[2,3-c]pyridin-2-yl)acetamide]	
		1000 to 10000	1000 to 10000	CC(=O)Nc1sc2c(c1-c1nc3cc(C(F)(F)F)ccc3s1)CCNC2 [Compound 204, N-(3-(5-(trifluoromethyl)benzo[d]thiazol-2-yl)-4,5,6,7-tetrahydrothieno[2,3-c]pyridin-2-yl)acetamide]	
		1000 to 10000	< 300	CC(=O)Nc1sc2c(c1-c1nc3ccccc3s1)C[C@H](C)N[C@@H]2C [Compound 219, N-((5S,7R)-3-(benzo[d]thiazol-2-yl)-5,7-dimethyl-4,5,6,7-tetrahydrothieno[2,3-c]pyridin-2-yl)acetamide]	
		1000 to 10000	> 10000	CC(=O)Nc1sc2c(c1-c1nc3ccccc3s1)CCC(N(C)C)C2 (stereo not drawn) [Compound 223, N-(3-(benzo[d]thiazol-2-yl)-6-(dimethylamino)-4,5,6,7-tetrahydrobenzo[b]thiophen-2-yl)acetamide]	
		300 to 1000	> 10000	CC(=O)Nc1sc2c(c1-c1nc3ccc(C)cc3s1)CCNC2 [Compound 224, N-(3-(6-methylbenzo[d]thiazol-2-yl)-4,5,6,7-tetrahydrothieno[2,3-c]pyridin-2-yl)acetamide]	
		> 10000	< 300	CC(=O)Nc1sc2c(c1-c1nc3ccccc3s1)CCC(NCc1ccncc1)C2 (stereo not drawn) [Compound 226, N-(3-(benzo[d]thiazol-2-yl)-6-((pyridin-4-ylmethyl)amino)-4,5,6,7-tetrahydrobenzo[b]thiophen-2-yl)acetamide]	
		> 10000	< 300	CC(=O)Nc1sc2c(c1-c1nc3ccccc3s1)CCC(NC1CCNCC1)C2 (stereo not drawn) [Compound 227, N-(3-(benzo[d]thiazol-2-yl)-6-(piperidin-4-ylamino)-4,5,6,7-tetrahydrobenzo[b]thiophen-2-yl)acetamide]	
		300 to 1000	< 300	COC(=O)c1ccc2sc(-c3c(NC(C)=O)sc4c3CCNC4)nc2c1 [Compound 229, Methyl 2-(2-acetamido-4,5,6,7-tetrahydrothieno[2,3-c]pyridin-3-yl)benzo[d]thiazole-5-carboxylate]	
